# What was measured:
# [1] = system: Immunoglobulin levels (IgG, IgA and IgM); test: Serum immunoglobulin levels by nephelometry, cross-sectional case control study of clozapine-treated vs clozapine-naive patients; type: in vivo, human
# [2] = system: specific antibody levels against Haemophilus B (Hib), Tetanus and Pneumococcus; parameters: species or system human; details: in vivo
# [3] = Infection questionnaire, antibiotic courses and hospital admissions, same case control study; type: in vivo, human
# serum IgG, IgA and IgM = test: Serum immunoglobulins in clozapine patients referred to Immunology clinic; type: in vivo, human
# [4] = system: IgG to Haemophilus influenza B, Pneumococcus and Tetanus; details: human, in vivo
# [5] = system: circulating total IgG, IgA, IgM and pneumococcal-specific IgG; test: Second observational study (interim), circulating immunoglobulins; type: in vivo, human; details: interim analysis
# [6] = system: circulating B cell subsets; test: Second observational study (interim), peripheral blood B cell subsets by FACS; type: in vivo, human; details: interim analysis
# [7] = Wild type mouse study, body weight; type: in vivo, C57BL/6 mice; details: 5 mg/kg and 10 mg/kg IP once daily; maximal by 3 days, recovering fully to baseline by day 9
# [8] = system: collagen-induced arthritis; test: Collagen-induced arthritis (CIA) model, onset, clinical score and paw-swelling; type: in vivo, DBA/1 mice
# Description: Adult (age 13-15 weeks) DBA/1 male mice were purchased from Envigo (Horst, Netherlands). […] 1. […] All experiments were approved by the Clinical Medicine Animal Welfare and Ethical Review Body (AWERB) and by the UK Home Office. DBA/1 mice were immunised with bovine type II collagen in CFA and monitored daily for onset of arthritis. […] Controls received vehicle (saline) alone. Treatment of mice commenced in one experiment on day 1 after immunisation and in a second experiment on day 15 after immunisation. Clinical scores and paw-swelling were monitored for 10 days following onset of arthritis. A clinical scoring system was used as follows. Arthritis severity was scored by an experienced, non-blinded investigator as follows: 0=normal, 1=slight swelling and/or erythema, 2=pronounced swelling, 3=ankylosis. […] Data were analyzed by one-way ANOVA with Tukey's or Dunnett's multiple comparison test or two-way ANOVA with Tukey's multiple comparison test as appropriate. All calculations were made using GraphPad Prism software.
# [9] = system: B220+ B cells, plasma cells, germinal centre B cells; test: CIA model, B cell subsets in spleen and lymph nodes by FACS; type: in vivo, DBA/1 mice
# [10] = system: anti-type II collagen IgG1 and IgG2a; test: CIA model, anti-collagen immunoglobulin by ELISA; type: in vivo, DBA/1 mice
# [11] = system: T follicular helper cells (CD4+ PD1+ CXCR5+); test: CIA model, T follicular helper cells by FACS; type: in vivo, DBA/1 mice
# [12] = system: class switched memory B cells, plasmablasts and other B cell subsets
# [13] = system: total peripheral blood B-cells from healthy donors differentiating to plasmablasts and plasma cells
# [14] = system: treatment-resistant schizophrenia; details: schizophrenic patients; cited from earlier work
# [15] = system: serum/plasma IgG, IgA, IgM; details: cited from earlier work
# [16] = Michel et al., 2015; cited from earlier work
# [17] = system: splenic B cell and T cell populations; test: Wild type mouse study, spleen immunophenotyping by flow cytometry
# [18] = system: bone marrow B cell subsets; test: Wild type mouse study, bone marrow B cell immunophenotyping by flow cytometry
# CD20 = biological target: T1, CD20 (Homo sapiens, UniProt P11836); details: Arnold et al., 2017; Khellaf et al., 2014; cited from earlier work
# T1 construct: host or cells: B cells of patients in vivo
# T1 sequence (P11836 1-297): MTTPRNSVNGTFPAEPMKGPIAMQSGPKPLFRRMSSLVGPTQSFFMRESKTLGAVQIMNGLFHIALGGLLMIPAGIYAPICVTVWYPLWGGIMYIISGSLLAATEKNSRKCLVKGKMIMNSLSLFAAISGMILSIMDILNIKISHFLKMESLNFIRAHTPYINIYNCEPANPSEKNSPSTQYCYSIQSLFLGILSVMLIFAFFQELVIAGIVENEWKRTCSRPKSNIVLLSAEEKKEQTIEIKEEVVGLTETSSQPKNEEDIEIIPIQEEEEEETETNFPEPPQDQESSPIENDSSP
# [19] = clozapine-treated patients post-exclusion, n=94
# [20] = number of admissions, clozapine-treated patients
# [21] = FIG. 3B, referred clozapine patients
# [22] = outpatients on clozapine for at least five years (Lozano et al., 2016)
# [23] = six weeks treatment (Hinze-Selch et al., 1998)
# [24] = 10 mg/kg clozapine IP, 21 days, FIG. 18
compound,measurement,setting,value
"CN1CCN(C2=Nc3cc(Cl)ccc3Nc3ccccc32)CC1 [Clozapine, clozapine]","Concentrations of IgG, IgA and IgM vs clozapine-naive control group","[1]; human, in vivo",significantly reduced
same,Effect of duration of clozapine therapy on serum IgG,"[1]; p 0.014, FIG. 2, not observed in clozapine-naive patients",associated with lower serum IgG levels
same,"IgM-Pneumococcus, mean (SEM in the line below)",[2],58.5 U/L
same,Admitted to hospital with infection,[3]; clozapine group vs 0.06 in controls,0.12 per patient year
same,"Antibiotic courses per year: 1-5 courses, percentage of patients",[3]; [19],33.0%
same,"Antibiotic courses per year: >5 courses, percentage of patients",[3]; [19],5.3%
same,"Antibiotic courses per year: nil courses, percentage of patients",[3]; [19],61.7%
same,"Antibiotic courses per year: >5 courses, percentage of patients","[3]; clozapine-treated patients post-exclusion, n=94, listed as clozapine",5.3%
same,"Admission frequency in 12-month period, all cause",[3]; [20],21
same,"Admission frequency in 12-month period, infection-related",[3]; [20],15
same,Serum IgA after clozapine was stopped,"serum IgG, IgA and IgM; one patient, after 24 months",0.29 g/L
same,Serum IgM after clozapine was stopped,"serum IgG, IgA and IgM; one patient, after 24 months",0.49 g/L
same,Mean IgA,"serum IgG, IgA and IgM; referred clozapine patients",0.34 g/L
same,Mean IgG,"serum IgG, IgA and IgM; referred clozapine patients",3.6 g/L
same,Mean IgM,"serum IgG, IgA and IgM; referred clozapine patients",0.21 g/L
same,Individuals failing to develop an IgG response above ≥50 mg/L,[4],73%
same,Individuals failing to mount a Haemophilus-IgG response ≥1 mcg/ml,[4],42%
same,Patients with IgG to Haemophilus influenza B (HiB) <1 mcg/ml at initial assessment,[4],75%
same,Patients with Pneumococcus-IgG <50 mg/L at initial assessment,[4],94%
same,Patients with Tetanus-IgG <0.1 IU/mL at initial assessment,[4],38%
same,Vaccine response of individual referred patient,[4],Failure to responds to
same,"Levels of circulating total IgG, IgA and IgM vs clozapine naive",[5]; FIG. 6A-C,Significantly reduced
same,IgG antibodies against pneumococcus vs clozapine naive,[5]; FIG. 7,trend to lower
same,Overall CD19+ B cell numbers vs clozapine naive,[6]; FIG. 8A-B,not significantly different
same,Naive (CD19+ CD27-) B cells as a proportion of total CD19+ B cells,[6]; FIG. 9A-C,Small increase
same,Overall memory B cell pool,[6]; FIG. 10A-C,without perturbation
same,IgMhi IgDlo memory B cell subpopulation,[6]; FIG. 12A-C,without perturbation
same,Circulating levels of transitional B cells,[6]; FIG. 13A-C,No significant difference
same,Circulating levels of marginal zone B cells,[6]; FIG. 14A-C,No significant difference
same,Class-switched memory B cells (CD27+ IgM- IgD- as % B),"[6]; P=0.06 vs control, FIG. 11A-C",Strong trends to a specific reduction
same,Levels of plasmablasts,"[6]; P=0.07 vs control clozapine naive, FIG. 15A-C",Strong trends to reduction
same,Body weight,[7],transient fall in body weight
same,Swelling of the first affected paw,"[8]; 10 mg/kg clozapine from day 1, FIG. 27",reduced swelling of the first affected paw
same,Arthritis onset,"[8]; both doses of clozapine (5, 10 mg/kg) from day 1",extremely effective in delaying arthritis onset
same,Overall clinical score,"[8]; both doses, administered on day 1, FIG. 27",reduced overall clinical score
same,Onset of arthritis post-immunisation,"[8]; clozapine 5 or 10 mg/kg IP daily from day 1 or day 15, FIGS. 25 and 26",significantly effective in delaying the onset
same,Incidence of CIA,"[8]; most apparent when dosed just after CII immunisation, FIG. 26",reduces the incidence
same,Total number of affected paws compared to vehicle control,"[8]; significant with dosing at D1, FIG. 28",reduced the total number of affected paws
same,Proportion of plasma cells in spleen,"[9]; 10 mg/kg clozapine given on day 1, FIG. 30",significant reduction
same,Proportion of B220+ B cells in spleen,[9]; 10 mg/kg from day 1,significantly reduced
same,Level of GL7 expression on follicular B cells in lymph node,"[9]; all clozapine treatment groups vs vehicle, FIG. 32",significantly decreased
same,Percentage of B220+ B cells in lymph nodes,"[9]; all doses and time points (5 or 10 mg/kg from day 1 or day 15), FIG. 29",significantly lower percentage
same,Lymph node follicular B cells (B220+IgD-Fas+GL7hi),"[9]; all doses/both time points, FIG. 31",Strikingly significant reductions
same,Reduction of anti-type II collagen IgG1,"[10]; 10 mg/kg from day 15, FIG. 33",reaching statistical significance
same,Serum anti-type II collagen IgG2a,"[10]; 5 or 10 mg/kg from day 1 or day 15, single time point, FIG. 33",no significant impact
same,Levels of anti-type II collagen IgG1,"[10]; across all doses tested, FIG. 33",nominal reductions
same,Proportions of CD4+PD1+CXCR5+ T follicular helper cells in lymph node or spleen,"[11]; 5 or 10 mg/kg from day 1 or day 15, FIG. 34",did not significantly affect
same,Expression of PD-1 in lymph node T follicular helper cells (MFI),"[11]; all doses and time points, FIG. 35",Reduced expression of PD-1
same,CXCR5 expression on T follicular helper cells (MFI),"[11]; dosed from day 1, lymph node and spleen, FIG. 36",significant reductions
same,Expression of CCR7 on germinal centre resident T follicular helper cells,"[11]; lymph node and spleen, FIG. 37",reduction in expression of CCR7
same,CSMB vs healthy controls,[12]; [21],significant reduction
same,Marginal zone B cell numbers vs healthy control,[12]; [21],no significant difference
same,Total B cell numbers vs CVID and healthy controls,[12]; [21],similar
same,Overall lymphopenia or B cell lymphopenia,"[12]; human, in vivo",no severe overall lymphopenia or B cell lymphopenia
same,Direct toxicity to differentiating B-cells,[13],no direct toxicity effect
same,Previously treatment refractive patients in whom effective,[14],approximately 60%
same,"IgA, IgG, absolute neutrophil count and white blood cell count vs control group",[15]; [22],no differences were found
same,Mean plasma levels of IgM vs control group,[15]; [22],overall decrease
same,"IgA or IgM concentrations, pattern of autoantibodies",[15]; [23],no significant effect
same,Serum concentrations of IgG,[15]; [23],significant increases
same,CNS penetration,[16],high levels of CNS penetration
same,Activated T cells (B220+TCR-β+) in spleen compared to control,[17]; FIG. 21,reduced in dose-dependent fashion
same,Other splenic cell populations (B220-TCR-β-),[17]; FIG. 21,No effect
same,Percentage of splenic T cells (B220-TCR-β+),[17]; FIG. 21,reciprocal increase
same,Splenic follicular B cell subset,[17]; FIG. 22,no specific reductions
same,Splenic marginal zone B cell subset,[17]; FIG. 22,no specific reductions
same,Proportion of T2 B cells in the spleen,"[17]; across all doses of clozapine, FIG. 22",small increase
same,Percentage of splenic B cells (B220+TCR-β-) of total live splenocytes,"[17]; clozapine at 5 mg/kg and 10 mg/kg, FIG. 21",significantly lower percentage
same,Proportion of transitional stage 1 (T1) B cells in the spleen,"[17]; including at the 2.5 mg/kg dose, FIG. 22",mildly reduced proportion
same,Germinal centre cells in the spleen versus control or haloperidol,"[17]; steady state, FIG. 22",no differences observed
same,Pro-B cell fraction in bone marrow,[18]; [24],without any change
same,Proportion of pre-pro B cells in bone marrow,[18]; [24],significant increase
same,Percentage of immature B cells in bone marrow,[18]; FIG. 19,reduction
same,Overall B cells in the bone marrow,"[18]; any dose of clozapine (2.5, 5, 10 mg/kg IP, 21 days), FIG. 18",No overall reduction
same,Pre-B cells in bone marrow,"[18]; dose-dependent, significant vs control even at 2.5 mg/kg, FIG. 19",reduction
same,Percentage of proliferating pre-B cells in bone marrow,"[18]; reaching significance for the 5 mg/kg dose, FIG. 19",diminished
"O=C(CCCN1CCC(O)(c2ccc(Cl)cc2)CC1)c1ccc(F)cc1 [Haloperidol, haloperidol]",Activated T cells (B220+TCR-β+) in spleen compared to control,[17]; FIG. 21,also modestly apparent
"Clc1ccc2c(c1)N=C(N1CCNCC1)c1ccccc1N2 [Norclozapine, norclozapine]",Direct toxicity to differentiating B-cells,[13],no direct toxicity effect
rituximab,Patients with ITP in whom platelet count improved,CD20,~60%
